From patent publication US20110152332A1, “Pesticidal Heterocyclic Compounds” (Bayer CropScience AG, priority 2009, published 2011)

Key:
Assay type in all cases: in vivo
[1] = test system: Tobacco cutworm (Spodoptera litura) larvae; experiment: Test against tobacco cutworm (Spodoptera litura) larvae, leaf dip; details: active compound concentration 100 ppm; third instar larvae on dipped sweet potato leaves; after 7 days
Description: (§1) Unless described otherwise, the test solutions were prepared as follows:
(§2) The active compound, 1 part by weight of the active compound was admixed with the solvent in the above described amount which contains the emulsifying agent in the above described amount. The mixture was then diluted with water to specific concentration.
(§3) In order to prepare the test solution containing the active compound, 1 part by weight of the active compound was admixed with 3 parts by weight of the solvent dimethyl formamide which contains 1 part by weight of the emulsifying agent polyoxyethylene alkylphenyl ether. This mixture is then diluted with water to the specific concentration.
(§4) Solvent: dimethyl formamide, 3 parts by weight; emulsifying agent: polyoxyethylene alkylphenyl ether, 1 part by weight
Leaves of sweet potato were immersed in the test solution at the appropriate concentration, and the leaves were dried in air. The leaves were then placed in a petri dish having a diameter of 9 cm, and ten Spodoptera litura at third instar larvae were released therein. The petri dishes were placed in a temperature-controlled chamber at 25° C. After 2 days and 4 days more sweet potato leaves were added. After 7 days, the number of dead larvae was counted to calculate the insecticidal activity. An insecticidal activity of 100% means that all larvae were killed, whereas an insecticidal activity of 0% means that no larva was killed. In the current test, the results of two petri dishes for each treatment were averaged.

[2] = test system: Cucurbit leaf beetle (Aulacophora femoralis); experiment: Test against cucurbit leaf beetle (Aulacophora femoralis), leaf dip; details: active compound concentration 100 ppm; second instar larvae on dipped cucumber leaves; after 7 days
Description: as §1, §2, §3, §4
Leaves of cucumber were immersed in the test solution at the appropriate concentration, and the leaves were dried in air. The leaves were then put in a plastic cup containing sterilized black soil and five Aulacophora femoralis at second instar larvae were released in the cup. The cups were placed in a temperature-controlled chamber at 25° C. After 7 days, the number of dead larvae was counted, and thus the insecticidal activity was calculated. An insecticidal activity of 100% means that all larvae were killed, whereas an insecticidal activity of 0% means that no larva was killed.

[3] = test system: Boophilus microplus; experiment: Boophilus microplus (dip); details: application rate 100 ppm; adult engorged female ticks dipped one minute; after 7 days
Description: Solvent: dimethylsulfoxid
To produce a suitable preparation of active compound, 10 mg of active compound are dissolved in 0.5 ml solvent, and the concentrate is diluted with water to the desired concentration. Eight to ten adult engorged female Boophilus microplus ticks are placed in perforated plastic beakers and immersed in aqueous compound solution for one minute. Ticks are transferred to a filter paper in a plastic tray. Egg deposition of fertile eggs is monitored after. After 7 days mortality in % is determined. 100% means that all the ticks have been killed; 0% means that none of the ticks have been killed.

[4] = test system: Ctenocephalides felis; experiment: Ctenocephalides felis-test (CTECFE); details: application rate 100 ppm in cattle blood, adult unfed fleas, after 2 days
Description: (§5) Solvent: dimethyl sulfoxide
To produce a suitable preparation of active compound, 10 mg of active compound are dissolved in 0.5 ml solvent, and the concentrate is diluted with cattle blood to the desired concentration. Approximately 20 adult unfed (Ctenocephalides felis) are placed in flea chambers. The blood chamber, sealed with parafilm on the bottom, are filled with cattle blood supplied with compound solution and placed on top of the flea chamber, so that the fleas are able to suck the blood. The blood chamber is heated to 37° C. whereas the flea chamber is kept at room temperature. After 2 days mortality in % is determined. 100% means that all the fleas have been killed; 0% means that none of the fleas have been killed.

[5] = test system: Two-spotted spider mite (Tetranychus urticae); experiment: Test against two-spotted spider mite (Tetranychus urticae), spray; details: active compound concentration 100 ppm; adult mites on kidney bean, sprayed; after 7 days
Description: as §1, §2, §3, §4
50 to 100 adult mites of Tetranychus urticae were inoculated to leaves of kidney bean at two-leaf stage planted in a pot of 6 cm in diameter. After one day, test solution at the appropriate concentration was sprayed thereon in a sufficient amount using a spray gun. After the spraying, the plant pot was placed inside a greenhouse, and after 7 days, the acaricidal activity was calculated. An acaricidal activity of 100% means that all mites were killed, whereas an acaricidal activity of 0% means that no mite was killed.

[6] = test system: Lucilia cuprina 1st instar larvae; experiment: Lucilia cuprina-test (LUCICU 48 h); details: application rate 100 ppm, 1st instar larvae on minced horse meat, after 2 days, read-out: activity (percentage of larval mortality)
Description: Species: Lucilia cuprina 1st instar larvae (age 24 hrs)
as §5
10 mg active compound are dissolve in 0.5 ml Dimethylsulfoxid. Serial dilutions are made to obtain the desired rates. Approximately 20 Lucilia cuprina 1st instar larvae are transferred into a test tube containing 1 cm^3 of minced horse meat and 0.5 ml aqueous dilution of test compound. After 2 days percentage of larval mortality are recorded. 100% efficacy=all larvae are killed, […].

[7] = test system: Musca domestica; experiment: Musca domestica-test; details: application rate 100 ppm, adults, sugar/compound soaked sponge, after 2 days
Description: as §5
To produce a suitable preparation of active compound, 10 mg of active compound are dissolved in 0.5 ml solvent, and the concentrate is diluted with water to the desired concentration. Prior to the assay, a piece of kitchen sponge is soaked with a mixture of sugar and compound solution and placed into a container. 10 adults (Musca domestica) are placed into the container and closed with a perforated lid. After 2 days mortality in % is determined. 100% means that all the flies have been killed; 0% means that none of the flies have been killed.

Structure (SMILES)	insecticidal activity [1] [%]	insecticidal activity [2] [%]	activity (mortality in %) [3] [%]	activity (mortality in %) [4] [%]	acaricidal activity [5] [%]	mortality at 100 ppm [6] [%]	mortality at 100 ppm ([4]; Ctenocephalides felis, 48 h) [%]	mortality at 100 ppm ([7]; Musca domestica, 48 h) [%]	activity (mortality in %) [7] [%]
CC(=O)NCc1ccc(N2CC(c3cc(Cl)cc(Cl)c3)(C(F)(F)F)OC2=O)cc1C(F)(F)F (centres unmarked) [Compound 1-2]	100	100	80	95	–	–	–	–	–
CCC(=O)NCc1ccc(N2CC(c3cc(Cl)cc(Cl)c3)(C(F)(F)F)OC2=O)cc1C(F)(F)F (centres unmarked) [Compound 1-3, N-{4-[5-(3,5-dichlorophenyl)-2-oxo-5-(trifluoromethyl)-1,3-oxazolin-3-yl]-2-(trifluoromethyl)benzyl}propane amide]	100	100	–	–	100	100	95	100	–
O=C(CC(F)(F)F)NCc1ccc(N2CC(c3cc(Cl)cc(Cl)c3)(C(F)(F)F)OC2=O)cc1C(F)(F)F (centres unmarked) [Compound 1-7]	100	100	–	95	100	–	–	–	–
CC(=O)NCc1ccc(N2CC(c3cc(Cl)c(Cl)c(Cl)c3)(C(F)(F)F)OC2=O)cc1C(F)(F)F (centres unmarked) [Compound 1-16]	100	100	80	–	100	–	–	–	90
CCC(=O)NCc1ccc(N2CC(c3cc(Cl)c(Cl)c(Cl)c3)(C(F)(F)F)OC2=O)cc1C(F)(F)F (centres unmarked) [Compound 1-17]	100	100	100	–	100	–	–	–	90
CCC(=O)NCc1ccc(N2CC(c3cc(Cl)c(Cl)c(Cl)c3)(C(F)(F)F)OC2=O)cc1 (centres unmarked) [Compound 1-59]	100	100	–	95	–	–	–	–	–
CCC(=O)NCc1ccc(N2CC(c3cccc(C(F)(F)F)c3)(C(F)(F)F)OC2=O)cc1C(F)(F)F (centres unmarked) [Compound 1-73]	100	100	–	–	–	–	–	–	80
CSCC(=O)NCc1ccc(N2CC(c3cc(C(F)(F)F)cc(C(F)(F)F)c3)(C(F)(F)F)OC2=O)cc1C(F)(F)F (centres unmarked) [Compound 1-134]	100	100	–	–	100	–	–	–	–
CS(=O)(=O)CC(=O)NCc1ccc(N2CC(c3cc(C(F)(F)F)cc(C(F)(F)F)c3)(C(F)(F)F)OC2=O)cc1C(F)(F)F (centres unmarked) [Compound 1-136]	100	100	–	–	100	–	–	–	–
O=C(NCc1ccc(N2CC(c3cc(C(F)(F)F)cc(C(F)(F)F)c3)(C(F)(F)F)OC2=O)cc1Cl)C1CC1 (centres unmarked) [Compound 1-145]	100	100	–	95	100	–	–	–	80
O=C(CC(F)(F)F)NCc1ccc(N2CC(c3cc(C(F)(F)F)cc(C(F)(F)F)c3)(C(F)(F)F)OC2=O)cc1Cl (centres unmarked) [Compound 1-147]	100	100	–	95	100	–	–	–	–
Cc1cc(N2CC(c3cc(C(F)(F)F)cc(C(F)(F)F)c3)(C(F)(F)F)OC2=O)ccc1CNC(=O)C1CC1 (centres unmarked) [Compound 1-159]	100	100	–	95	–	–	–	–	90
Cc1cc(N2CC(c3cc(C(F)(F)F)cc(C(F)(F)F)c3)(C(F)(F)F)OC2=O)ccc1CNC(=O)CC(F)(F)F (centres unmarked) [Compound 1-161]	100	100	–	80	–	–	–	–	–
Cc1cc(N2CC(c3cc(C(F)(F)F)cc(C(F)(F)F)c3)(C(F)(F)F)OC2=O)ccc1CNC(=O)C[S+](C)[O-] (centres unmarked) [Compound 1-163]	–	–	–	80	–	–	–	–	–
C[C@H](NC(=O)C1CC1)c1ccc(N2CC(c3cc(Cl)c(Cl)c(Cl)c3)(C(F)(F)F)OC2=O)cc1 (some centres unmarked) [Compound 1-373-a]	100	100	–	–	100	–	–	–	–
CCC(=O)NC1CCc2cc(N3CC(c4cc(Cl)c(Cl)c(Cl)c4)(C(F)(F)F)OC3=O)ccc21 (centres unmarked) [Compound 4-31]	100	100	–	–	100	–	–	–	–
O=C(NC1CCc2cc(N3CC(c4cc(Cl)c(Cl)c(Cl)c4)(C(F)(F)F)OC3=O)ccc21)C1CC1 (centres unmarked) [Compound 4-33]	100	100	–	–	100	–	–	–	–
O=C(CC1CC1)NC1CCc2cc(N3CC(c4cc(Cl)c(Cl)c(Cl)c4)(C(F)(F)F)OC3=O)ccc21 (centres unmarked) [Compound 4-34]	100	100	–	–	100	–	–	–	–
O=C(CC(F)(F)F)NC1CCc2cc(N3CC(c4cc(Cl)c(Cl)c(Cl)c4)(C(F)(F)F)OC3=O)ccc21 (centres unmarked) [Compound 4-35]	100	100	–	–	100	–	–	–	–
